# Where “and” joins values, the source holds several entries; their conditions need not be identical. Equal entries are not always repeated. Where a SMILES comes first, the peptide text is derived from it. [ ]: non-standard residue; d: D form. Hyp = O=C(O)[C@@H]1C[C@@H](O)CN1
# Tested on: CCL2/JE/MCP-1
# Assay: Example 9 Luminex, LPS hPBMCs: CCL2/JE/MCP-1
# Type: cell-based, human
# Procedure: Treatment Human PBMCs were pretreated with YY-101, YDE-011 and YDE-043 or reference compound; Xiidra® at various concentration (ranging from 1 nM to 100 uM) for 2 h before stimulation. An equal volume of 0.5% DMSO was used as a vehicle control. Then, the cells were treated with LPS at 5 ug/ml. The supernatants from treated cells were harvested at 24 h and placed in a 96 well for Luminex cytokine & chemokine profiling using a Luminex 200 multiplex assay (Luminex; R&D system, USA).
# The main study arm with triplicate wells per group in a 24-well plate: • 1. Blank • 2. PBMC: 0.5% DMSO • 3. PBMC+LPS (5 ug/ml) • 4. PBMC+YY-101 100 uM • 5. PBMC+YY-101 10 uM • 6. PBMC+YY-101 1 uM • 7. PBMC+YY-101 0.1 uM • 8. PBMC+YY-101 0.01 uM • 9. PBMC+LPS (5 ug/ml)+Xiidra®100 uM • 10. PBMC+LPS (5 ug/ml)+Xiidra® 10 uM • 11. PBMC+LPS (5 ug/ml)+Xiidra® 1 uM • 12. PBMC+LPS (5 ug/ml)+Xiidra®0.1 uM • 13. PBMC+LPS (5 ug/ml)+Xiidra®0.01 uM • 14. PBMC+LPS (5 ug/ml)+Xiidra®0.001 uM • 15. PBMC+LPS (5 ug/ml)+YY-101 100 uM • 16. PBMC+LPS (5 ug/ml)+YY-101 10 uM • 17. PBMC+LPS (5 ug/ml)+YY-101 1 uM • 18. PBMC+LPS (5 ug/ml)+YY-101 0.1 uM • 19. PBMC+LPS (5 ug/ml)+YY-101 0.01 uM • 20. PBMC+LPS (5 ug/ml)+YY-101 0.001 uM • 21. PBMC+LPS (5 ug/ml)+YDE-011 100 uM • 22. PBMC+LPS (5 ug/ml)+YDE-011 10 uM • 23. PBMC+LPS (5 ug/ml)+YDE-011 1 uM • 24. PBMC+LPS (5 ug/ml)+YDE-011 0.1 uM • 25. PBMC+LPS (5 ug/ml)+YDE-011 0.01 uM • 26. PBMC+LPS (5 ug/ml)+YDE-011 0.001 uM • 27. PBMC+LPS (5 ug/ml)+YDE-043 100 uM • 28. PBMC+LPS (5 ug/ml)+YDE-043 10 uM • 29. PBMC+LPS (5 ug/ml)+YDE-043 1 uM • 30. PBMC+LPS (5 ug/ml)+YDE-043 0.1 uM • 31. PBMC+LPS (5 ug/ml)+YDE-043 0.01 uM • 32. PBMC+LPS (5 ug/ml)+YDE-043 0.001 uM
# Multiplex assay was used to measure 30 cytokines and chemokines. The 1:2, 1:10 and 1:200 diluted cell supernatant and serial dilution of the standard were dispensed into a 96 well plate at 50 ul/well. Then, the pre-mixed cocktail of antibody-coated magnetic beads was dispensed at 50 ul/well and incubated at room temperature for 2 h in a horizontal orbital microplate shaker at 800±500 rpm. The beads were washed using a magnetic device to prevent loss. The biotin-antibody was dispensed in 50 ul of each well and incubated at room temperature for 1 h in a shaker at 800±500 rpm. After washing, streptavidin-PE was added at 50 ul/well and incubated at room temperature for 30 min in a shaker under the same conditions. Finally, after washing, wash buffer (100 ul/well) was added to the plate and incubated in a shaker for 2 min. The Luminex™ 200 setting were set according to the manufacturer's protocol. The data was calculated with a standard five-parameter logistic nonlinear regression analysis of the data (xPonent software 4.2, USA). The levels of cytokine/chemokine are normalized to the live cell counts (1×10^5 cells/mL) and presented as concentrations per mL (pg/mL or ng/mL).
# [1] = PBMC + LPS(5 ug/ml) + test article 0.001 uM, Mean
# [2] = PBMC + LPS(5 ug/ml) + test article 0.001 uM, individual replicates
# [3] = PBMC + LPS(5 ug/ml) + test article 0.01 uM, Mean
# [4] = PBMC + LPS(5 ug/ml) + test article 0.01 uM, individual replicates
# [5] = PBMC + LPS(5 ug/ml) + test article 0.1 uM, Mean
# [6] = PBMC + LPS(5 ug/ml) + test article 0.1 uM, individual replicates
# [7] = PBMC + LPS(5 ug/ml) + test article 1 uM, Mean
# [8] = PBMC + LPS(5 ug/ml) + test article 1 uM, individual replicates
# [9] = PBMC + LPS(5 ug/ml) + test article 10 uM, Mean
# [10] = PBMC + LPS(5 ug/ml) + test article 10 uM, individual replicates
# [11] = PBMC + LPS(5 ug/ml) + test article 100 uM, Mean
# [12] = PBMC + LPS(5 ug/ml) + test article 100 uM, individual replicates
# [13] = PBMC + test article 0.01 uM, no LPS, Mean
# [14] = PBMC + test article 0.01 uM, no LPS, individual replicates
# [15] = PBMC + test article 0.1 uM, no LPS, Mean
# [16] = PBMC + test article 0.1 uM, no LPS, individual replicates
# [17] = PBMC + test article 1 uM, no LPS, Mean
# [18] = PBMC + test article 1 uM, no LPS, individual replicates
# [19] = PBMC + test article 10 uM, no LPS, Mean
# [20] = PBMC + test article 10 uM, no LPS, individual replicates
# [21] = PBMC + test article 100 uM, no LPS, Mean
# [22] = PBMC + test article 100 uM, no LPS, individual replicates
structure (smiles),measurement,setting,value
CC(C)C[C@H](NC(=O)CNC(=O)[C@H](CC(C)C)NC(=O)[C@H](CCC(N)=O)NC(=O)CNC(=O)[C@@H]1C[C@@H](O)CN1)C(=O)N[C@@H](C)C(=O)NCC(=O)N1CCC[C@H]1C(=O)N[C@@H](CCCCN)C(=O)O [YDE-011] (H-[Hyp]GQLGLAGPK-OH),Concentration,[1],1881.3 pg/mL
same,conc/live cell,[1],355.2 pg/10^5
same,Concentration,[2],1856.7 pg/mL and 1905.5 pg/mL and 1881.6 pg/mL
same,conc/live cell,[2],412.6 pg/10^5 and 328.5 pg/10^5 and 324.4 pg/10^5
same,Concentration,[3],1974.9 pg/mL
same,conc/live cell,[3],339.7 pg/10^5
same,Concentration,[4],1895.6 pg/mL and 2063.3 pg/mL and 1965.9 pg/mL
same,conc/live cell,[4],300.9 pg/10^5 and 332.8 pg/10^5 and 385.5 pg/10^5
same,Concentration,[5],1708.3 pg/mL
same,conc/live cell,[5],300.6 pg/10^5
same,Concentration,[6],1699.1 pg/mL and 1759.6 pg/mL and 1666.0 pg/mL
same,conc/live cell,[6],257.4 pg/10^5 and 351.9 pg/10^5 and 292.3 pg/10^5
same,Concentration,[7],1797.0 pg/mL
same,conc/live cell,[7],358.5 pg/10^5
same,Concentration,[8],1795.6 pg/mL and 1880.8 pg/mL and 1714.5 pg/mL
same,conc/live cell,[8],326.5 pg/10^5 and 391.8 pg/10^5 and 357.2 pg/10^5
same,Concentration,[9],1564.4 pg/mL
same,conc/live cell,[9],297.3 pg/10^5
same,Concentration,[10],1502.6 pg/mL and 1615.2 pg/mL and 1575.4 pg/mL
same,conc/live cell,[10],278.3 pg/10^5 and 278.5 pg/10^5 and 335.2 pg/10^5
same,Concentration,[11],281.9 pg/mL
same,conc/live cell,[11],46.5 pg/10^5
same,Concentration,[12],252.0 pg/mL and 301.1 pg/mL and 292.6 pg/mL
same,conc/live cell,[12],41.3 pg/10^5 and 49.4 pg/10^5 and 48.8 pg/10^5
CC(C)C[C@H](NC(=O)[C@H](CCC(N)=O)NC(=O)CNC(=O)[C@@H]1C[C@@H](O)CN1)C(=O)NCC(=O)O [YDE-043] (H-[Hyp]GQLG-OH; N-terminus and C-terminus assumed),Concentration,[1],2109.3 pg/mL
same,conc/live cell,[1],427.9 pg/10^5
same,Concentration,[2],2082.8 pg/mL and 2215.5 pg/mL and 2029.7 pg/mL
same,conc/live cell,[2],473.4 pg/10^5 and 369.2 pg/10^5 and 441.2 pg/10^5
same,Concentration,[3],2023.7 pg/mL
same,conc/live cell,[3],388.1 pg/10^5
same,Concentration,[4],2036.2 pg/mL and 1963.4 pg/mL and 2071.4 pg/mL
same,conc/live cell,[4],452.5 pg/10^5 and 297.5 pg/10^5 and 414.3 pg/10^5
same,Concentration,[5],1922.5 pg/mL
same,conc/live cell,[5],358.4 pg/10^5
same,Concentration,[6],2109.9 pg/mL and 1768.2 pg/mL and 1889.5 pg/mL
same,conc/live cell,[6],422.0 pg/10^5 and 315.8 pg/10^5 and 337.4 pg/10^5
same,Concentration,[7],2123.4 pg/mL
same,conc/live cell,[7],402.7 pg/10^5
same,Concentration,[8],2174.1 pg/mL and 2114.7 pg/mL and 2081.5 pg/mL
same,conc/live cell,[8],374.9 pg/10^5 and 440.6 pg/10^5 and 392.7 pg/10^5
same,Concentration,[9],1799.9 pg/mL
same,conc/live cell,[9],333.9 pg/10^5
same,Concentration,[10],1889.0 pg/mL and 1766.4 pg/mL and 1744.2 pg/mL
same,conc/live cell,[10],363.3 pg/10^5 and 327.1 pg/10^5 and 311.5 pg/10^5
same,Concentration,[11],281.0 pg/mL
same,conc/live cell,[11],44.6 pg/10^5
same,Concentration,[12],258.9 pg/mL and 303.0 pg/mL
same,conc/live cell,[12],41.8 pg/10^5 and 47.3 pg/10^5
CC(C)C[C@H](NC(=O)CNC(=O)[C@H](CC(=O)O)NC(=O)[C@H](CCC(N)=O)NC(=O)CNC(=O)[C@@H]1C[C@@H](O)CN1)C(=O)N[C@@H](C)C(=O)NCC(=O)N1CCC[C@H]1C(=O)N[C@@H](CCCCN)C(=O)O [YY-101] (H-[Hyp]GQDGLAGPK-OH; N-terminus and C-terminus assumed),Concentration,[1],3936.7 pg/mL
same,conc/live cell,[1],612.8 pg/10^5
same,Concentration,[2],3765.3 pg/mL and 3838.5 pg/mL and 4206.2 pg/mL
same,conc/live cell,[2],660.6 pg/10^5 and 540.6 pg/10^5 and 637.3 pg/10^5
same,Concentration,[3],4029.1 pg/mL
same,conc/live cell,[3],653.6 pg/10^5
same,Concentration,[4],4143.7 pg/mL and 4045.9 pg/mL and 3897.7 pg/mL
same,conc/live cell,[4],647.5 pg/10^5 and 674.3 pg/10^5 and 639.0 pg/10^5
same,Concentration,[5],3583.8 pg/mL
same,conc/live cell,[5],616.4 pg/10^5
same,Concentration,[6],3601.3 pg/mL and 3708.0 pg/mL and 3442.0 pg/mL
same,conc/live cell,[6],580.9 pg/10^5 and 713.1 pg/10^5 and 555.2 pg/10^5
same,Concentration,[7],4023.9 pg/mL
same,conc/live cell,[7],619.0 pg/10^5
same,Concentration,[8],3902.2 pg/mL and 3911.6 pg/mL and 4257.8 pg/mL
same,conc/live cell,[8],619.4 pg/10^5 and 550.9 pg/10^5 and 686.7 pg/10^5
same,Concentration,[9],3459.8 pg/mL
same,conc/live cell,[9],524.3 pg/10^5
same,Concentration,[10],3308.6 pg/mL and 3697.4 pg/mL and 3373.4 pg/mL
same,conc/live cell,[10],551.4 pg/10^5 and 577.7 pg/10^5 and 443.9 pg/10^5
same,Concentration,[11],598.6 pg/mL
same,conc/live cell,[11],104.2 pg/10^5
same,Concentration,[12],541.0 pg/mL and 629.1 pg/mL and 625.5 pg/mL
same,conc/live cell,[12],85.9 pg/10^5 and 101.5 pg/10^5 and 125.1 pg/10^5
same,Concentration,[13],3382.2 pg/mL
same,conc/live cell,[13],692.4 pg/10^5
same,Concentration,[14],1522.2 pg/mL and 5242.2 pg/mL
same,conc/live cell,[14],292.7 pg/10^5 and 1092.1 pg/10^5
same,Concentration,[15],2047.1 pg/mL
same,conc/live cell,[15],389.7 pg/10^5
same,Concentration,[16],1338.6 pg/mL and 2755.6 pg/mL
same,conc/live cell,[16],304.2 pg/10^5 and 475.1 pg/10^5
same,Concentration,[17],1790.1 pg/mL
same,conc/live cell,[17],325.5 pg/10^5
same,Concentration,[18],1471.3 pg/mL and 2108.8 pg/mL
same,conc/live cell,[18],267.5 pg/10^5 and 383.4 pg/10^5
same,Concentration,[19],7729.5 pg/mL
same,conc/live cell,[19],1218.8 pg/10^5
same,Concentration,[20],12584.2 pg/mL and 2874.9 pg/mL
same,conc/live cell,[20],1966.3 pg/10^5 and 471.3 pg/10^5
same,Concentration,[21],1095.4 pg/mL
same,conc/live cell,[21],165.8 pg/10^5
same,Concentration,[22],1394.1 pg/mL and 796.7 pg/mL
same,conc/live cell,[22],217.8 pg/10^5 and 113.8 pg/10^5

# Reference: patent publication US20230146455A1, “TREATMENT OF INFLAMMATORY DISEASES WITH PEPTIDES AND PHARMACEUTICAL COMPOSITIONS” (Yuyu Pharma, Inc., priority 2020, published 2023)
